Data taken from US20110098312A1, “METHODS FOR PREVENTING THE DEVELOPMENT OF RETINOPATHY BY THE ORAL ADMINISTRATION OF NNR LIGANDS” (Targacept ,Inc, priority 2008, published 2011).

How the values were obtained:
Pig primary RPE cells = experiment: Transepithelial resistance (TER) of RPE monolayers under oxidative stress (H2O2 and serum as source of complement); assay type: cell-based; conditions: for Mean Diff., Fisher's PLSD for 100 nM effect: treatment / Mean Diff., Fisher's PLSD for nicotine effect: treatment: Significance Level 5%; for Mean Diff., Fisher's PLSD for nicotine effect: treatment: dose response profiles; for dose-response profile of TER preservation: range 5 nM-1 μM; for effect of compound on TER on its own: test compound controls lack H2O2; for EC50: Sus scrofa, RPE, pretreatment 1 hour prior to stressors, tested at 5 nM-1 μM, read-out: ED50 (reduction of oxidative stress-mediated TER loss)
Experimental: Pig primary RPE cells grown as stable monolayers were used for this set of experiments. RPE monolayers were treated with hydrogen peroxide (H2O2) and serum as a source of complement. This treatment is known to result in loss of transepithelial resistance (TER) in RPE cells that is dependent upon reactive oxygen species and superoxide production. […] Combined treatment of two stressors present in AMD (low oxidative stress and complement activation) results in TER loss; whereas each stressor alone has no effect. This loss in TER can be eliminated by pretreatment with superoxide dismutase (SOD) mimetic (MnTBAP). […] FIG. 4 is derived from the maximal effects observed in FIG. 3. […] The higher the resistance, the less injury to the cell. Note that “HI” is “heat inactivated.” Heat inactivates complement, a necessary component to cause injury to the RPE in the presence of peroxides. Pig primary RPE cells were harvested from pigs used for practice surgeries. Cultures were performed described by Ablonczy, Z. and C. E. Crosson, VEGF modulation of retinal pigment epithelium resistance. […] Chemicals. Compounds were tested at 5 nM-1 μM concentration. Compound A-E are as noted herein.

[1] = system: Rat brain endothelial cell line gp8.3 cells; experiment: Alpha 7 ligand modulation of radiation-induced ROS generation; assay type: cell-based; conditions: 10 uM ligand for 1 h prior to single dose of 10 Gy; H2DCFDA; FIG. 2
[2] = pairwise comparison versus Compound B
[3] = pairwise comparison versus Compound C
[4] = pairwise comparison versus Compound D
[5] = pairwise comparison versus Compound A

Row | Compound | Mean Diff., Fisher's PLSD for 100 nM effect: treatment (Pig primary RPE cells; [2]) | Mean Diff., Fisher's PLSD for nicotine effect: treatment (Pig primary RPE cells; [2]) | Mean Diff., Fisher's PLSD for 100 nM effect: treatment (Pig primary RPE cells; [4]) | Mean Diff., Fisher's PLSD for nicotine effect: treatment (Pig primary RPE cells; [4]) | dose-response profile of TER preservation (Pig primary RPE cells; FIG. 4) | also measured
1 | CN[C@@]1(C)[C@@H]2CC[C@@H](C2)C1(C)C [Compound A, exo-S-mecamylamine] | −14.209 | −16.538 | −6.177 | −9.359 | exhibited a dose-response profile over the entire range used | Mean Diff., Fisher's PLSD for 100 nM effect: treatment (Pig primary RPE cells; [3]): −16.276; Mean Diff., Fisher's PLSD for nicotine effect: treatment (Pig primary RPE cells; [3]): −14.503
2 | Cc1ccc(C(=O)N[C@@H]2C3CCN(CC3)[C@H]2Cc2cccnc2)s1 [Compound B, N-((2S,3R)-2-((pyridin-3-yl)methyl)-1-azabicyclo[2.2.2]oct-3-yl)-5-methylthiophene-2-carboxamide] | – | – | – | – | plateaued at or around the ED50 level | effect of compound on TER on its own (Pig primary RPE cells): reduced TER on their own; radiation-induced increase in ROS level [1]: blocked radiation-induced increase in ROS level
3 | O=C(N[C@@H]1C2CCN(CC2)[C@H]1Cc1cccnc1)c1cc(F)cc(F)c1 [Compound C, N-((2S,3R)-2-((3-pyridinyl)methyl)-1-azabicyclo[2.2.2]oct-3-yl)-3,5-difluorobenzamide] | 2.066 | −2.035 | 10.098 | 5.144 | plateaued at or around the ED50 level | EC50 (Pig primary RPE cells; FIG. 4): < 50 nM; effect of compound on TER on its own (Pig primary RPE cells): reduced TER on their own
4 | c1cncc(C2CC3CCN2CC3)c1 (stereo not drawn) [Compound D] | −8.023 | −7.179 | – | – | – | –
5 | C(=C\[C@H]1CCNC1)/c1cncnc1 [Compound E, (R)-5-((E)-2-pyrrolidin-3-ylvinyl)pyrimidine] | 25.718 | 17.682 | 33.750 | 24.861 | – | EC50 (Pig primary RPE cells; FIG. 4): ~200 nM; Mean Diff., Fisher's PLSD for 100 nM effect: treatment (Pig primary RPE cells; [5]): 39.927; Mean Diff., Fisher's PLSD for nicotine effect: treatment (Pig primary RPE cells; [5]): 34.222; Mean Diff., Fisher's PLSD for 100 nM effect: treatment (Pig primary RPE cells; [3]): 23.652; Mean Diff., Fisher's PLSD for nicotine effect: treatment (Pig primary RPE cells; [3]): 19.717
6 | O=C(O)c1ccc(/C2=C3\C=CC(=N3)/C(c3ccc(C(=O)O)cc3)=c3/cc/c4[n]3[Mn]([Cl])[n]3c2ccc3/C(c2ccc(C(=O)O)cc2)=C2/C=CC(=N2)\C=4c2ccc(C(=O)O)cc2)cc1 [MnTBAP, reference compound] | – | – | – | – | – | loss in TER caused by combined stressors (Pig primary RPE cells; pretreatment, low oxidative stress and complement activation): eliminated
7 | CN1CCCC1c1cccnc1 (stereo not drawn) [nicotine, reference compound] | – | – | – | – | – | reduction of oxidative stress-mediated loss of epithelial cell integrity (TER deterioration) (Pig primary RPE cells; H2O2 + serum, dose response, FIG. 4): reduces transepithelial resistance (TER) deterioration in the presence of stress in a dose-dependent manner
